The source made the active and inactive calls. Cut-off read from the data, not from the text of the source: actives have a measured IC50 and inactives only a lower limit.

The assay deals with Envelope glycoprotein gp160 (Human immunodeficiency virus 1, UniProt Q6QLK5). The assay is described as follows: inhibitors of HIV fusion peptide binding, primary screen, biochemical, uHTS, fluorescence dequenching (AID 1986).
Chain of Envelope glycoprotein gp160 (Q6QLK5 whole entry, the tested form may be a part): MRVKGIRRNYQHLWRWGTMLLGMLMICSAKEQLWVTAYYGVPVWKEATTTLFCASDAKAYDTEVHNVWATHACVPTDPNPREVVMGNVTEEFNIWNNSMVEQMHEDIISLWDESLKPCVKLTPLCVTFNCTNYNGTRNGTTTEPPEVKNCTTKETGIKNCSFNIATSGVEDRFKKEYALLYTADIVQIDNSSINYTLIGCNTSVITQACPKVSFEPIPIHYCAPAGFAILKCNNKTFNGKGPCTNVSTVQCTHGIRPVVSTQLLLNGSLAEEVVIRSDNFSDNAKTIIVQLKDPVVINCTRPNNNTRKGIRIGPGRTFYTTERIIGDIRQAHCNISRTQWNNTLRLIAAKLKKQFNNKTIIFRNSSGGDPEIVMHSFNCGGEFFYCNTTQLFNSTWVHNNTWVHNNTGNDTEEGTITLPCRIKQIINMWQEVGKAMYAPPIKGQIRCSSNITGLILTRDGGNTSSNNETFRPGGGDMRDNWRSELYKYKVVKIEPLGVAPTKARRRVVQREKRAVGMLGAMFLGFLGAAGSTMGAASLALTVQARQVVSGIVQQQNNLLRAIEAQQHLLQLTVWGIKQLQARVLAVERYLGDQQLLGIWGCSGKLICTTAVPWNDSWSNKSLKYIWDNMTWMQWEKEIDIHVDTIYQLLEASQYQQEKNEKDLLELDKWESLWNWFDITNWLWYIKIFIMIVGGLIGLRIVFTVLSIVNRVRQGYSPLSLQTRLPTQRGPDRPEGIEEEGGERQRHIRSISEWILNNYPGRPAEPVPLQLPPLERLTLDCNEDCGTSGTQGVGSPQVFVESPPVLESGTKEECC

Turning to `O=C(OCC1OC(n2ncc(=O)[nH]c2=O)C(OC(=O)c2ccccc2)C1OC(=O)c1ccccc1)c1ccccc1` (stereo unspecified), the half-maximal inhibitory concentration (IC50) (in general, the concentration that inhibits the measured activity by half) was 23.8 µM (active).

For the origin of these results see ChEMBL document CHEMBL1201862, “PubChem BioAssay data set” (2004).
